Measured values from PMC13144739, “Global analysis of cancer cell responses to USP9X inhibition” (The EMBO Journal, 2026).

What was measured:
DLD-1 cells = assay: Colony formation assay, DLD-1; format: cell-based, human; details: 10 µM, 7–12 days
Procedure: (§1) Cells were seeded at low density (200–4000 cells per well) after initial optimisation in a six-well tissue culture-treated plate (Falcon). Twenty-four hours post seeding, media was replaced, and the inhibitor was added. Cells were left to grow into colonies between 7 and 12 days, depending on the cell line. For analysis, the media was removed, and the cells were fixed with 10% (w/v) formalin for 10 min. Colonies were stained with crystal violet (Sigma-Aldrich, 0.5% [w/v] in 20% [v/v] MeOH) for 10 min and washed thrice with distilled H2O. Plates were imaged using the ChemiDoc imaging system (Bio-Rad) and analysed using the ImageJ ColonyArea plugin as described previously (Guzmán et al, [2014]).

HUVEC = assay: Colony formation assay, HUVEC; format: cell-based, human; details: 10 µM, 7–12 days
Procedure: as §1

UO-31 cell line = assay: NCI-60 cancer cell panel, UO-31; format: cell-based, human; details: 10 µM, 3 days
Procedure: (§2) Inhibitors were tested at 10 µM. Data shown is the mean of two technical replicates and is shown relative to the no-drug control, and relative to the time zero number of cells.

MOLT-4 cells = assay: NCI-60 cancer cell panel, MOLT-4; format: cell-based, human; details: 10 µM, 3 days
Procedure: as §2

[1] = test system: 57 human cancer cell lines; assay: NCI-60 cancer cell panel; format: cell-based; details: 72 h, 3 days, in five cell lines across three cancer types, read-out: cell growth inhibition
Procedure: as §2

For `Cc1[nH]c2ccc(C(=O)N3CCN(S(=O)(=O)c4ccc5c(c4)OCCO5)CC3)cc2c1C` [WEHI-092], the “clonogenic potential, DLD-1” value (DLD-1 cells) was “strong decrease in proliferative capacity”, the “clonogenic potential, HUVEC” value (HUVEC) was “limited or no effects” and the “cell killing, UO-31” value (UO-31 cell line) was “cell death”. For the same compound, the “cell growth, MOLT-4” value (MOLT-4 cells) was “stalling cell growth completely” and the inhibition at 10 µM [1] was over 50%.
